Measurements from article PMC5745756, “N,N-disubstituted azines attenuate LPS-mediated neuroinflammation in microglia and neuronal apoptosis via inhibiting MAPK signaling pathways” (BMC Neuroscience, 2017).
Where two headings read alike, the source gives them in different places.

Experiments:
Type in all cases: cell-based, murine
[1] = MTT cell viability of LPS-activated BV-2 cells; conditions: mouse, LPS-activated BV-2 microglial cells; 20 µM compound; percentage of the LPS-only treatment group; mean ± standard deviation, three experiments
Experimental: (§1) […] or MTT assay was performed as described by our previous publication with slight modification. In order to measure MTT and NO production, BV-2 cells were plated into a 96-well plate at a density of 4 × 10^4 cells/well. […] Then, nitrite (a soluble oxidation product of NO) was detected in the culture media by using the Griess reaction. The supernatant (50 µL) was collected and mixed with an equal volume of Griess reagent (1% sulfanilamide in phosphoric acid and 0.1% N-1-napthylethylenediamine dihydrochloride). The absorbance was measured at 570 nm by using a microplate reader. Sodium nitrite was used to create a standard curve from which the NO2 concentration was calculated. The cell viability was evaluated by spectrophotometrically measuring the reduction of yellow 3-[4,5-dimethylthiazol-2-yl]-2,5-diphenyltetrazolium bromide (MTT) to purple formazan crystals. MTT was dissolved in DMEM, added to the culture plate containing cells at a final concentration of 0.5 mg/mL, and incubated for 1 h. The medium containing the MTT solution was carefully removed, and 200 µL DMSO was added to each well. After solubilizing the stained cells to produce a formazan-colored solution, the optical density (OD) was measured on a microplate reader at 570 nm, and the results were expressed as a percentage of the LPS-treated group. The same plate was used for the NO and MTT assays. The cell supernatant was used for the NO assay, and the plated cells were used for the MTT assay.
(§2) The NO production and cell viability of LPS-activated BV-2 cells were measured after treatment with azine derivatives using Griess reagent and MTT assay, respectively.

[2] = test system: NO production in LPS-activated BV-2 cells; assay: Nitrite (Griess) assay of NO production in LPS-activated BV-2 cells; conditions: Mus musculus, read-out: IC50, concentration that caused 50% inhibition of NO production in LPS-activated BV-2 cells
Experimental: as §1, §2

BV-2 cells = assay: MTT cell viability of LPS-activated BV-2 cells
Experimental: as §1, §2

[3] = BV-2, 100 ng/mL LPS, 24 h, Griess reaction

| SMILES | viability at 24 h, 20 µM [1] | IC50 [2, 3] | IC50 ([2]; BV-2, 24 h) | Toxicity in BV-2 cells (discussion) (BV-2 cells) |
| --- | --- | --- | --- | --- |
| COc1ccc(/C=C/C=NN=C/C=C/c2ccc(OC)cc2)cc1 [Compound 1, 1,2-Bis((E)-3-(4-methoxyphenyl)allylidene)hydrazine] | 90.3 ± 9.37% | 58.5 µM |  |  |
| C/C(C=NN=C/C(C)=C/c1ccccc1)=C\c1ccccc1 [Compound 2, 1,2-Bis((E)-2-methyl-3-phenylallylidene)hydrazine] | 96.6 ± 1.75% | 50.1 µM |  |  |
| C(=NN=Cc1cnc2ccccc2c1)c1cnc2ccccc2c1 [Compound 4, 1,2-Bis(quinolin-3-ylmethylene)hydrazine] | 91 ± 3.39% | > 500 µM |  |  |
| O=[N+]([O-])c1ccccc1/C=C/C=NN=C/C=C/c1ccccc1[N+](=O)[O-] [Compound 6, 1,2-Bis((E)-3-(2-nitrophenyl)allylidene)hydrazine] | 87.9 ± 19.5% |  | 47.4 µM |  |
| Clc1ccc(/C=C/C=NN=C/C=C/c2ccc(Cl)cc2)cc1 [Compound 7, 1,2-Bis((E)-3-(4-chlorophenyl)allylidene)hydrazine] | 77.2 ± 5.67% | 39.9 µM |  | high toxicity |
| C(C=C(c1ccccc1)c1ccccc1)=NN=CC=C(c1ccccc1)c1ccccc1 [Compound 8, 1,2-Bis(3,3-diphenylallylidene)hydrazine] | 69.5 ± 3.25% | 47.9 µM |  | high toxicity |
| C(=NN=Cc1ccc(N(c2ccccc2)c2ccccc2)cc1)c1ccc(N(c2ccccc2)c2ccccc2)cc1 [Compound 9, 4,4′-Hydrazine-1,2-diylidenebis(methan-1-yl-1-ylidene)bis(N,N-diphenylaniline)] | 83.5 ± 7.78% | 26.3 µM |  |  |
| [H]/N=C(/NC)NCCC[C@H](N)C(=O)O [L-NMMA, L-NG-monomethylarginine, reference compound] | 100 ± 3.41% | 18.3 µM |  |  |
